The text below walks through data of patent publication US20170143009A1, “ANIMAL FEED AND AQUAFEED” (DUPONT NUTRITION BIOSCIENCES APS, priority 2014, published 2017).

In one data set the test system is Pacific white shrimp. Kind of data set: 8-week feeding trial, growth performance and feed utilisation. The format is in vivo, Litopennaeus vannamei. The settings on record: 8 weeks; for Final individual body weight gain: 5 replicates. How it is done: The feeding experiment (8 weeks) on Pacific white shrimp was conducted at the shrimp farm facilities of Prince of Songkhla University, Pattani Campus in Thailand. The shrimp rearing unit was made up of fiberglass aquarium of 235 L. The parameters to assess the water quality i.e. salinity, dissolved oxygen (DO), temperature and pH were measured daily using standard protocols. There was a weekly monitoring of NH3 and NO2. Siphoning of left-over feed and faeces and exchange of 10% of water was done daily.
Pacific white leg shrimp (Litopennaeus vannamei) were obtained from a standard farm in Pattani province. Shrimp were acclimatized in a concrete pond for 7 days prior to the start of the experiment. It was ensured that the juveniles were not infested with bacteria, parasites and viruses. […] They were sorted and allotted randomly for a particular feed group. 30 shrimps were introduced into each of the 235 L fibreglass aquarium (5 aquariums per feed group). It was confirmed that there was no significant difference in the initial weights of the groups. They were grown in the system for 8 weeks.
Experimental shrimp feeds were used.
In the present study, positive control was based on 9% fish meal whereas negative control with or without betaine products) was based on 4% fish meal as indicated in the feed formulation in table 2.
The experimental feeds were hand fed everyday; four times a day. Feed consumption as well as amount of unconsumed feed were monitored (weighed) daily.
Daily feed was based on feed guide x number of surviving animals, and was predetermined one week in advance, but was adjusted on a daily basis if significant amount of feed remained non eaten or if all feed was consumed, in order to avoid underfeeding or overfeeding. The animals were weighed every 2 weeks—all animals in each of the aquaria were weighed.
The bulk weights of shrimp were recorded from each experimental unit at the start of the feeding period. Weight measurement was examined every two weeks by sampling 10% of white shrimp in each net cage (at week 2, 4, 6, and 8). At the end of the study (8 weeks), all shrimp in each net cage were weighed. The number of survivors was also checked. The determination of weight gain was based on the total biomass in each net cage considering the number of survivors.
Survival (%)=100 (Final shrimp number/Initial shrimp number)
Weight gain, WG (%)=[[(Mean final bodyweight)−(Mean initial body weight)]/Mean initial body weight]×100.
Rate of feed intake (%/BW/day)=Feed intake (g)×100/[((mean final BW+mean initial BW)/2)×((number of final shrimp+number of initial shrimp)/2)×time (days)].
Feed conversion ratio, FCR=Dry feed intake (g)/[Final biomass (g)−Initial biomass (g)+Biomass of the dead shrimp (g)].

For data set [1] the following is noted: pure form; water and lower alcohols; cited from earlier work.
Setting [2] is: NC feed (4% fish meal) + 0.5% uncoated betaine.
[3] abbreviates: NC feed (4% fish meal) + 1% uncoated betaine.

Each structure is given as a SMILES string.

As for `C[N+](C)(C)CC(=O)[O-]` [Uncoated Betafin, trimethylglycine], the “Final individual body weight gain” value was 5.58 ± 0.29ab g/shrimp in the data set with Pacific white shrimp (NC feed (4% fish meal) + 0.5% uncoated betaine (5 kg/tonne of feed)) and 6.06 ± 0.82a g/shrimp with Pacific white shrimp (NC feed (4% fish meal) + 1% uncoated betaine (10 kg/tonne of feed)). Further, the results for the “FCR (feed conversion ratio)” value in the data set with Pacific white shrimp (setting [2]) and in the data set on Pacific white shrimp (setting [3]) were 1.83 ± 0.09a and 1.85 ± 0.21a, respectively. Also, the Feed intake in the data set on Pacific white shrimp (setting [2]) is 7.60 ± 0.51b; in the data set with Pacific white shrimp (setting [3]) it was 8.46 ± 0.48a; in the data set with Pacific white shrimp (NC feed (4% fish meal) + 1% uncoated betaine, listed as betaine) it was “significantly higher than positive control”. Besides, the figures for the Survival with Pacific white shrimp (setting [2]) and with Pacific white shrimp (setting [3]) were 95.8 ± 4.2abcd % and 95.0 ± 3.3abcd %, respectively. Besides, the Solubility result in data set [1] is “readily soluble in water and lower alcohols”.
